Patent US20260285850A1, “SUBSTITUTED OXAZOLIDINONES AND IMIDAZOLINONES AS HERBICIDES” (FMC CORPORATION, priority 2023, published 2026)

How the values were obtained:
Assay type in all cases: in vivo
corn (Zea mays) [1] = assay: Test A preemergence soil spray, visual injury rating 0-100; settings: 10 days, 0 = no effect, 100 = complete control
In short: (§1)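 Rating: visual, day 10, untreated plants as reference, 0 no effect to 100 full control. Plants were in loam-sand and were treated either preemergence via directed soil spray or postemergence at the one- to two-leaf stage.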

[2] = system: ragweed (common ragweed, Ambrosia artemisiifolia); assay: as above; settings: 10 days, 0 = no effect, 100 = complete control
In short: as §1

[3] = system: barnyardgrass (Echinochloa crus-galli); assay: as above; settings: 10 days, 0 = no effect, 100 = complete control
In short: as §1

[4] = system: blackgrass (Alopecurus myosuroides); assay: as above; settings: 10 days, 0 = no effect, 100 = complete control
In short: as §1

kochia (Bassia scoparia) [5] = assay: as above; settings: 10 days, 0 = no effect, 100 = complete control
In short: as §1

[6] = system: palmer (palmer amaranth, palmer pigweed, Amaranthus palmeri); assay: as above; settings: 10 days, 0 = no effect, 100 = complete control
In short: as §1

[7] = system: ryegrass, Italian (italian ryegrass, Lolium multiflorum); assay: as above; settings: 10 days, 0 = no effect, 100 = complete control
In short: as §1

[8] = system: wheat (Triticum aestivum); assay: as above; settings: 10 days, 0 = no effect, 100 = complete control
In short: as §1

[9] = system: oat, wild (wild oat, Avena fatua); assay: as above; settings: 10 days, 0 = no effect, 100 = complete control
In short: as §1

soybean (Glycine max) [10] = assay: as above; settings: 10 days, 0 = no effect, 100 = complete control
In short: as §1

rice (Oryza sativa) = assay: Test B flooded paddy test, visual plant response rating 0-100; settings: 250 g ai/ha, Flood, applied to paddy water, evaluated after 13 days
In short: (§2)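 Compounds applied to standing paddy water (3 cm above soil, maintained for the test duration) on 2-leaf-stage plants; visual rating vs controls at 13 days, greenhouse.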

[11] = system: ducksalad (Heteranthera limosa); assay: as above; settings: 250 g ai/ha, Flood, applied to paddy water, evaluated after 13 days
In short: as §2

[12] = system: barnyardgrass (Echinochloa crusgalli); assay: as above; settings: 250 g ai/ha, Flood, applied to paddy water, evaluated after 13 days
In short: as §2

[13] = system: sedge, umbrella (small-flower umbrella sedge, Cyperus difformis); assay: as above; settings: 250 g ai/ha, Flood, applied to paddy water, evaluated after 13 days
In short: as §2

corn (Zea mays) [14] = assay: Test A postemergence application, visual injury rating 0-100; settings: Postemergence
In short: as §1

[15] = system: ragweed (common ragweed, Ambrosia artemisiifolia); assay: as above; settings: Postemergence
In short: as §1

[16] = system: barnyardgrass (Echinochloa crus-galli); assay: as above; settings: Postemergence
In short: as §1

[17] = system: blackgrass (Alopecurus myosuroides); assay: as above; settings: Postemergence
In short: as §1

kochia (Bassia scoparia) [18] = assay: as above; settings: Postemergence
In short: as §1

[19] = system: palmer (palmer amaranth, palmer pigweed, Amaranthus palmeri); assay: as above; settings: Postemergence
In short: as §1

[20] = system: ryegrass, Italian (italian ryegrass, Lolium multiflorum); assay: as above; settings: Postemergence
In short: as §1

[21] = system: galium (catchweed bedstraw, Galium aparine); assay: as above; settings: Postemergence
In short: as §1

[22] = system: wheat (Triticum aestivum); assay: as above; settings: Postemergence
In short: as §1

[23] = system: oat, wild (wild oat, Avena fatua); assay: as above; settings: Postemergence
In short: as §1

soybean (Glycine max) [24] = assay: as above; settings: Postemergence
In short: as §1

[25] = system: horseweed (Erigeron canadensis); assay: as above; settings: Postemergence
In short: as §1

[26] = 31 g ai/ha, greenhouse 10 days, 0 no effect, 100 complete control
[27] = 125 g ai/ha, 10 days, 0 is no effect, 100 is complete control

SMILES: CC(C)OC(=O)C1=CCC(NC(=O)C2(C)CN(c3cc(Cl)cc(Cl)c3)C(=O)O2)C1 (stereo not drawn) [Compound 70]
- Corn plant response rating (0-100) (corn (Zea mays) [1]; 31 g ai/ha): 0
- Corn plant response rating (0 to 100 scale) (corn (Zea mays) [1]; 125 g ai/ha): 20
- Ragweed plant response rating (0-100) ([2]; 31 g ai/ha): 10
- Ragweed plant response rating (0 to 100 scale) ([2]; 125 g ai/ha): 10
- Barnyardgrass plant response rating (0-100) ([3]; 31 g ai/ha): 30
- Barnyardgrass plant response rating (0 to 100 scale) ([3]; 125 g ai/ha): 90
- Blackgrass plant response rating (0-100) ([4]; 31 g ai/ha): 10
- Blackgrass plant response rating (0 to 100 scale) ([4]; 125 g ai/ha): 30
- Kochia plant response rating (0-100) (kochia (Bassia scoparia) [5]; 31 g ai/ha): 0
- Kochia plant response rating (0 to 100 scale) (kochia (Bassia scoparia) [5]; 125 g ai/ha): 40
- Amaranth, Palmer plant response rating (0-100) ([6]; 31 g ai/ha): 30
- Amaranth, Palmer plant response rating (0 to 100 scale) ([6]; 125 g ai/ha): 90
- Ryegrass, Italian plant response rating (0-100) ([7]; 31 g ai/ha): 0
- Ryegrass, Italian plant response rating (0 to 100 scale) ([7]; 125 g ai/ha): 70
- Wheat plant response rating (0-100) ([8]; 31 g ai/ha): 0
- Wheat plant response rating (0 to 100 scale) ([8]; 125 g ai/ha): 70
- Oat, Wild plant response rating (0-100) ([9]; 31 g ai/ha): 0
- Oat, Wild plant response rating (0 to 100 scale) ([9]; 125 g ai/ha): 20
- Soybean plant response rating (0-100) (soybean (Glycine max) [10]; 31 g ai/ha): 0
- Soybean plant response rating (0 to 100 scale) (soybean (Glycine max) [10]; 125 g ai/ha): 30
- Plant response rating, Rice (0 to 100 scale, 0 is no effect and 100 is complete control) (rice (Oryza sativa)): 60
- Plant response rating, Ducksalad (0 to 100 scale, 0 is no effect and 100 is complete control) [11]: 65
- Plant response rating, Barnyardgrass (0 to 100 scale, 0 is no effect and 100 is complete control) [12]: 50
- Plant response rating, Sedge, Umbrella (0 to 100 scale, 0 is no effect and 100 is complete control) [13]: 98
- Corn plant response rating (0 to 100 scale) (corn (Zea mays) [14]; [26]): 90
- Corn plant response rating (0 to 100 scale) (corn (Zea mays) [14]; [27]): 100
- Ragweed plant response rating (0 to 100 scale) [15, 26]: 0
- Ragweed plant response rating (0 to 100 scale) [15, 27]: 50
- Barnyardgrass plant response rating (0 to 100 scale) [16, 26]: 90
- Barnyardgrass plant response rating (0 to 100 scale) [16, 27]: 90
- Blackgrass plant response rating (0 to 100 scale) [17, 26]: 50
- Blackgrass plant response rating (0 to 100 scale) [17, 27]: 80
- Kochia plant response rating (0 to 100 scale) (kochia (Bassia scoparia) [18]; [26]): 80
- Kochia plant response rating (0 to 100 scale) (kochia (Bassia scoparia) [18]; [27]): 80
- Amaranth, Palmer / Pigweed, Palmer plant response rating (0 to 100 scale) [19, 26]: 90
- Amaranth, Palmer / Pigweed, Palmer plant response rating (0 to 100 scale) [19, 27]: 90
- Ryegrass, Italian plant response rating (0 to 100 scale) [20, 26]: 70
- Ryegrass, Italian plant response rating (0 to 100 scale) [20, 27]: 70
- Galium plant response rating (0 to 100 scale) [21, 26]: 80
- Galium plant response rating (0 to 100 scale) [21, 27]: 80
- Wheat plant response rating (0 to 100 scale) [22, 26]: 80
- Wheat plant response rating (0 to 100 scale) [22, 27]: 90
- Oat, Wild plant response rating (0 to 100 scale) [23, 26]: 30
- Oat, Wild plant response rating (0 to 100 scale) [23, 27]: 80
- Soybean plant response rating (0 to 100 scale) (soybean (Glycine max) [24]; [26]): 80
- Soybean plant response rating (0 to 100 scale) (soybean (Glycine max) [24]; [27]): 90
- Horseweed plant response rating (0 to 100 scale) [25, 26]: 0
- Horseweed plant response rating (0 to 100 scale) [25, 27]: 0
